Here are results for five compounds from PubChem BioAssay AID1259411 (Chemical Carcinogenesis Research Information System (CCRIS), 2018).

The source made the active and inactive calls. The rule behind the calls is not given here.

The series deals with rodent carcinogenicity bioassays, tumor incidence. The series is described as follows: CCRIS carcinogenicity studies. The essentials:
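NCI-built, expert-reviewed records of carcinogenicity and related test outcomes (mutagenicity, tumor promotion/inhibition) compiled from published and report sources, historical span 1985-2011, not updated.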

On to `O=c1[nH]cc(F)c(=O)[nH]1`, for which the carcinogen call was “inactive; negative” (Species: MOUSE, Strain/Sex: B6C3F1/FEMALE, Route: ORAL, Dose: 0, 30, 60 PPM IN DRINKING WATER FOR 82 WK (STUDY DURATION: 86 WK), Dose: 0, 30, 60 PPM IN DRINKING WATER FOR 82 WK (STUDY DURATION: 86 WK)); “inactive; negative” (Species: MOUSE, Strain/Sex: B6C3F1/MALE, Route: ORAL, Dose: 0, 30, 60 PPM IN DRINKING WATER FOR 82 WK (STUDY DURATION: 86 WK), Dose: 0, 30, 60 PPM IN DRINKING WATER FOR 82 WK (STUDY DURATION: 86 WK)); “active; positive” (Species: MOUSE, Strain/Sex: BALB/FEMALE, Route: INTRAPERITONEAL, Dose: 0, 30 MG/KG IN STERILE SALINE 1/WK FOR 50 WK (STUDY DURATION: 105 WK), Tumor Site: Type of Lesion: LUNG: TUMOR, LYMPHORETICULAR SYSTEM: LYMPHOMA OR LEUKEMIA); “active; positive” (Species: MOUSE, Strain/Sex: BALB/MALE, Route: INTRAPERITONEAL, Dose: 0, 30 MG/KG IN STERILE SALINE 1/WK FOR 50 WK (STUDY DURATION: 105 WK), Tumor Site: Type of Lesion: LUNG: TUMOR); “inactive; negative” (Species: RAT, Strain/Sex: F344/FEMALE, Route: ORAL, Dose: 0, 62, 125 PPM IN DRINKING WATER FOR 111 WK (STUDY DURATION: 111 WK), Dose: 0, 62, 125 PPM IN DRINKING WATER FOR 111 WK (STUDY DURATION: 111 WK)); “inactive; negative” (Species: RAT, Strain/Sex: F344/MALE, Route: ORAL, Dose: 0, 62, 125 PPM IN DRINKING WATER FOR 111 WK (STUDY DURATION: 111 WK), Dose: 0, 62, 125 PPM IN DRINKING WATER FOR 111 WK (STUDY DURATION: 111 WK)).
As to `N#CCNC(=O)c1cnccc1C(F)(F)F`, the carcinogen call (Species: Mouse, Strain/Sex: Crl:CD-1(ICR)BR VAF/Plus / Female (60/Group), Route: Oral, Dose: 0, 250, 750, 2250 ppm (0; 38; 112; 334 mg/kg/day) in diet for 18 mo, study duration 18 mo, Dose: 0, 250, 750, 2250 ppm (0; 38; 112; 334 mg/kg/day) in diet for 18 mo, study duration 18 mo, Tumor Site: Type of Lesion: Lung: alveolar/bronchiolar adenomas and carcinomas) is “active; positive”; the carcinogen call (Species: Mouse, Strain/Sex: Crl:CD-1(ICR)BR VAF/Plus / Male (60/Group), Route: Oral, Dose: 0, 250, 750, 2250 ppm (0; 29; 88; 261 mg/kg/day) in diet for 18 mo, study duration 18 mo, Dose: 0, 250, 750, 2250 ppm (0; 29; 88; 261 mg/kg/day) in diet for 18 mo, study duration 18 mo, Tumor Site: Type of Lesion: Lung: alveolar/bronchiolar adenomas and carcinomas) is “active; positive”; the carcinogen call (Species: Rat, Strain/Sex: Wistar (Jcl:Wistar)/Female (52/Group), Route: Oral, Dose: 0, 200, 1000, 5000 ppm (0; 8.92; 44.1; 219 mg/kg/day) in diet for 2 yr, study duration 2 yr, Dose: 0, 200, 1000, 5000 ppm (0; 8.92; 44.1; 219 mg/kg/day) in diet for 2 yr, study duration 2 yr) was “inactive; negative”; the carcinogen call (Species: Rat, Strain/Sex: Wistar (Jcl:Wistar)/Male (52/Group), Route: Oral, Dose: 0, 50, 100, 200, 1000 ppm (0; 1.84; 3.68; 7.32; 36.5 mg/kg/day) in diet for 2 yr, study duration 2 yr, Dose: 0, 50, 100, 200, 1000 ppm (0; 1.84; 3.68; 7.32; 36.5 mg/kg/day) in diet for 2 yr, study duration 2 yr) is “inactive; negative”.
Regarding `O=S(=O)(O)OCc1ccc2ccc3cccc4ccc1c2c34`, the carcinogen call (Species: RAT, Strain/Sex: SPRAGUE-DAWLEY/FEMALE, Route: SUBCUTANEOUS, Dose: 0, 0.2 UMOL IN 0.1 ML SESAME OIL:DMSO (9:1) 1/2 D FOR 20 DOSES (STUDY DURATION: 52 WK), Tumor Site: Type of Lesion: INJECTION SITE: SARCOMA) is “active; positive”.
With `Nc1ncn[nH]1`, the carcinogen call by setting is: (Species: HAMSTER, Strain/Sex: SYRIAN/FEMALE, Route: ORAL, Dose: 0, 1, 10, 100 PPM IN DIET (TOTAL DOSE: 0; 0.07; 0.6; 6.6 G/KG) FOR 822-856 D (STUDY DURATION: LIFETIME), Dose: 0, 1, 10, 100 PPM IN DIET (TOTAL DOSE: 0; 0.07; 0.6; 6.6 G/KG) FOR 822-856 D (STUDY DURATION: LIFETIME)) “inactive; negative”; (Species: HAMSTER, Strain/Sex: SYRIAN/MALE, Route: ORAL, Dose: 0, 1, 10, 100 PPM IN DIET (TOTAL DOSE: 0; 0.08; 0.8; 7.2 G/KG) FOR 885-979 D (STUDY DURATION: LIFETIME), Dose: 0, 1, 10, 100 PPM IN DIET (TOTAL DOSE: 0; 0.08; 0.8; 7.2 G/KG) FOR 885-979 D (STUDY DURATION: LIFETIME)) “inactive; negative”; (Species: MOUSE, Route: ORAL, Tumor Site: Type of Lesion: LIVER, THYROID GLAND) “active; positive”; (Species: MOUSE, Strain/Sex: NMRI/FEMALE, Route: ORAL, Dose: 0, 1, 10, 100 PPM IN DIET (TOTAL DOSE: 0; 0.17; 1.7; 18.2 G/KG) FOR 970-1027 D (STUDY DURATION: LIFETIME), Dose: 0, 1, 10, 100 PPM IN DIET (TOTAL DOSE: 0; 0.17; 1.7; 18.2 G/KG) FOR 970-1027 D (STUDY DURATION: LIFETIME)) “inactive; negative”; (Species: MOUSE, Strain/Sex: NMRI/MALE, Route: ORAL, Dose: 0, 1, 10, 100 PPM IN DIET (TOTAL DOSE: 0; 0.13; 1.3; 13.1 G/KG) FOR 1022-1028 D (STUDY DURATION: LIFETIME), Dose: 0, 1, 10, 100 PPM IN DIET (TOTAL DOSE: 0; 0.13; 1.3; 13.1 G/KG) FOR 1022-1028 D (STUDY DURATION: LIFETIME)) “inactive; negative”; (Species: RAT, Route: ORAL, Tumor Site: Type of Lesion: LIVER, THYROID GLAND) “active; positive”. The carcinogen call was “active; positive” (Species: RAT, Route: SUBCUTANEOUS, Tumor Site: Type of Lesion: INJECTION SITE, LIVER, THYROID GLAND, Tumor Site: Type of Lesion: INJECTION SITE, LIVER, THYROID GLAND); “active; positive” (Species: RAT, Strain/Sex: WISTAR/FEMALE, Route: ORAL, Dose: 0, 1, 10, 100 PPM IN DIET (TOTAL DOSE: 0; 0.08; 0.8; 7.9 G/KG) FOR 1140-1143 D (STUDY DURATION: LIFETIME), Dose: 0, 1, 10, 100 PPM IN DIET (TOTAL DOSE: 0; 0.08; 0.8; 7.9 G/KG) FOR 1140-1143 D (STUDY DURATION: LIFETIME), Tumor Site: Type of Lesion: THYROID GLAND: MALIGNANT TUMOR); “active; positive” (Species: RAT, Strain/Sex: WISTAR/MALE, Route: ORAL, Dose: 0, 1, 10, 100 PPM IN DIET (TOTAL DOSE: 0; 0.06; 0.6; 5.8 G/KG) FOR 1137-1143 D (STUDY DURATION: LIFETIME), Dose: 0, 1, 10, 100 PPM IN DIET (TOTAL DOSE: 0; 0.06; 0.6; 5.8 G/KG) FOR 1137-1143 D (STUDY DURATION: LIFETIME), Tumor Site: Type of Lesion: THYROID GLAND: MALIGNANT TUMOR).
Take `ClC#CCl`: the carcinogen call is “active; positive” (Species: MOUSE, Strain/Sex: NMRI/FEMALE, Route: INHALATION, Dose: 0, 2 PPM 6 HR/D 1 D/WK FOR 18 MO (STUDY DURATION: LIFE), Tumor Site: Type of Lesion: KIDNEY: CYSTADENOMA, LUNG: ADENOMA, HARDERIAN GLAND: CYSTADENOMA, Tumor Site: Type of Lesion: KIDNEY: CYSTADENOMA, LUNG: ADENOMA, HARDERIAN GLAND: CYSTADENOMA); “active; positive” (Species: MOUSE, Strain/Sex: NMRI/FEMALE, Route: INHALATION, Dose: 0, 2 PPM 6 HR/D 2 D/WK FOR 18 MO (STUDY DURATION: LIFE), Tumor Site: Type of Lesion: HARDERIAN GLAND: CYSTADENOMA); “active; positive” (Species: MOUSE, Strain/Sex: NMRI/FEMALE, Route: INHALATION, Dose: 0, 9 PPM 6 HR/D 1 D/WK FOR 12 MO (STUDY DURATION: LIFE), Tumor Site: Type of Lesion: KIDNEY: CYSTADENOMA, HARDERIAN GLAND: CYSTADENOMA); “active; positive” (Species: MOUSE, Strain/Sex: NMRI/MALE, Route: INHALATION, Dose: 0, 2 PPM 6 HR/D 1 D/WK FOR 18 MO (STUDY DURATION: LIFE), Tumor Site: Type of Lesion: KIDNEY: CYSTADENOMA, CYSTADENOCARCINOMA, HARDERIAN GLAND: CYSTADENOMA); “active; positive” (Species: MOUSE, Strain/Sex: NMRI/MALE, Route: INHALATION, Dose: 0, 2 PPM 6 HR/D 2 D/WK FOR 18 MO (STUDY DURATION: LIFE), Tumor Site: Type of Lesion: KIDNEY: CYSTADENOMA, HARDERIAN GLAND: CYSTADENOMA); “active; positive” (Species: MOUSE, Strain/Sex: NMRI/MALE, Route: INHALATION, Dose: 0, 9 PPM 6 HR/D 1 D/WK FOR 12 MO (STUDY DURATION: LIFE), Tumor Site: Type of Lesion: KIDNEY: CYSTADENOMA, CYSTADENOCARCINOMA). The carcinogen call was “active; positive” (Species: RAT, Strain/Sex: WISTAR/FEMALE, Route: INHALATION, Dose: 0, 14 PPM 6 HR/D 2 D/WK FOR 18 MO (STUDY DURATION: LIFE), Tumor Site: Type of Lesion: KIDNEY: CYSTADENOMA, LIVER: CHOLANGIOMA, HEMOPOIETIC SYSTEM: MALIGNANT LYMPHOMA, Tumor Site: Type of Lesion: KIDNEY: CYSTADENOMA, LIVER: CHOLANGIOMA, HEMOPOIETIC SYSTEM: MALIGNANT LYMPHOMA) and “active; positive” (Species: RAT, Strain/Sex: WISTAR/MALE, Route: INHALATION, Dose: 0, 14 PPM 6 HR/D 2 D/WK FOR 18 MO (STUDY DURATION: LIFE), Tumor Site: Type of Lesion: KIDNEY: CYSTADENOMA, LIVER: CHOLANGIOMA).
